Columns and labels:
brain-specific receptors = assay: inhibition of 3H-benzodiazepine (3H-flunitrazepam) binding to brain-specific receptors; parameters: species or system rat (Wistar strain); settings: 1 μM test compound (activity criterion), rat cortex P2 fraction, 0° C., 30 minutes
rats [1] = assay: thirsty rat conflict test (non-conditioned passive avoidance); format: in vivo, rat (Wistar strain)
Excerpt: Another test which has been employed to assess anti-anxiety effects is a non-conditioned passive avoidance procedure described by J. R. Vogel, B. Beer and D. E. Clody, "A Simple and Reliable Conflict Procedure for Testing Anti-Anxiety Agents", Psychopharmacologia, Vol. 21, pages 1-7 (1971). A conflict situation is induced in rats by a modification of this method. The test is referred to herein as the "thirsty rat conflict" test.
Groups of 8 naive, Wistar strain rats, weighing 200-240 g. each, were deprived of water for 48 hours. The test compounds were administered in single or graded, oral or intraperitoneal doses, suspended in distilled water and one drop of polysorbate 80. The control animals received the vehicle alone. After 30 or 60 minutes, each rat was placed in an individual clear plexiglass chamber. Tap water was available ad libitum from a nipple located in a black plexiglass box adjacent to the main chamber. A circuit carrying a 0.7 milliampere AC shocking current was established between the stainless steel grid floor of the chamber and the nipple. After 20 licks of non-shocked drinking, a fixed ratio of a 2-second "shock-on" and 19 licks "shock-off" cycle began and continued for a total of 3 minutes. The number of shocks taken by each rat during a 3-minute interval was recorded and compared to a control group.

rats [2] = assay: protection from pentylenetetrazole-induced clonic seizures in rats; format: in vivo, rat
Description: The anti-anxiety properties of the novel compounds of the invention have been established in a test which indicates anxiolytic activity by the measure of protection from convulsions resulting from the administration of pentylenetetrazole (sold as METROZOL, Reg. T.M.). Single or graded dosage levels of the test compounds were administered orally or intraperitoneally (in a 2% starch vehicle, containing 5% v/v polyethylene glycol and one to two drops of polysorbate 80) to groups of at least 4 rats. Thirty or 60 minutes after administration, the rats were treated intravenously with pentylenetetrazole at a dosage of 23 mg/kg. of body weight. This dose is estimated to cause clonic seizures in 99% of unprotected rats. A test compound is considered active if it protects 50% or more of the rats from clonic seizures. It has been reported (R. T. Hill and D. H. Tedeschi, "Animal Testing and Screening Procedures in Evaluating Psychotropic Drugs" in "An Introduction to Psychopharmacology", Eds. R. R. Rech and K. E. Moore, Raven Press, New York, pages 237-288 (1971)) that there is a high degree of correlation between antagonism of pentylenetetrazole seizures in rats and anti-anxiety effects in higher mammals.

Structure (SMILES)	inhibition of 3H-benzodiazepine binding (brain-specific receptors) [%]	activity in the thirsty rat conflict test (rats [1]; oral, 25 mg./kg.)	activity in the thirsty rat conflict test (rats [1]; intraperitoneal, 25 mg/kg)	resistance to convulsions induced by pentylenetetrazole (rats [2]; intraperitoneal, 50 mg./kg., pentylenetetrazole 23 mg/kg i.v.)	anxiolytic activity (thirsty rat conflict test) (rats [1]; general statement, oral or intraperitoneal, active if shocks significantly higher than control (Mann-Whitney U test))	ED50 (rats [2]; Rattus norvegicus, oral, dosage effective in 50% of the rats, pentylenetetrazole 23 mg/kg i.v., read-out: ED50, resistance to convulsions induced by pentylenetetrazole) [mg/kg]	anxiolytic activity (protection from pentylenetetrazole convulsions) (rats [2]; general statement, oral or intraperitoneal, active if 50% or more of rats protected)	resistance to convulsions induced by pentylenetetrazole (in words) (rats [2]; oral)
N#Cc1ncn2c(-c3ccsc3)ccnc12 [Example 2, 4-(3-Thienyl)imidazo[1,5-a]pyrimidine-8-carbonitrile]	20	–	–	–	–	–	–	–
CCOC(=O)c1ncn2c(-c3cccnc3)ccnc12 [Example 15, Ethyl 4-(3-pyridyl)imidazo[1,5-a]pyrimidine-8-carboxylate]	49	inactive	–	–	–	–	–	–
N#Cc1ncn2c(-c3cccs3)ccnc12 [Example 1, 4-(2-Thienyl)imidazo[1,5-a]pyrimidine-8-carbonitrile]	39	–	active	inactive	–	–	–	–
N#Cc1ncn2c(-c3cccnc3)ccnc12 [Example 5, 4-(3-Pyridyl)imidazo[1,5-a]pyrimidine-8-carbonitrile]	19	active	–	–	shown to possess anxiolytic activity	6.8	shown to possess anxiolytic activity	effective

— patent publication US4374988A, “4-Heteroarylimidazo-[1,5-A]pyrimidines” (American Cyanamid Company, priority 1981, dated 1983)
